Data published in the supplement of paper PMC10883282.
Counter-ions that a name gives are not always drawn. ± gives the standard deviation of the averaged measurements.

Test system: MES-SA
Experiment: relative viability vs DMSO control (72 h) (fraction); higher = more viable cells
How it was run: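 Sarcoma cell lines were grown in 384-well plates seeded toward 80–90% confluence and exposed 24 h later to serially diluted compound. After 72 h at 37 °C and 5% CO2, with 0.1% DMSO vehicle and a 5 µM positive control on the plates, ATPLite was read. Relative viability, given as percent growth averaged over up to triplicate wells, was rescaled so that 1 is full and 0 is none.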

SMILES | relative viability (2 pM) | relative viability (5 pM) | relative viability (15 pM) | relative viability (50 pM) | relative viability (0.00014 µM) | relative viability (0.00041 µM) | relative viability (0.0012 µM) | relative viability (0.0037 µM) | relative viability (0.011 µM) | relative viability (200 fM) | relative viability (600 fM) | relative viability (0.00017 µM) | relative viability (0.00051 µM) | relative viability (0.00152 µM) | relative viability (0.00457 µM) | relative viability (0.01372 µM) | relative viability (0.04115 µM) | relative viability (0.1235 µM) | relative viability (0.3704 µM) | relative viability (1.111 µM) | relative viability (3.333 µM) | relative viability (10 µM)
COc1cc2c(cc1O)CCN[C@]21CS[C@@H]2c3c(OC(C)=O)c(C)c4c(c3[C@H](COC1=O)N1[C@@H]2[C@H]2c3c(cc(C)c(OC)c3O)C[C@@H]([C@@H]1O)N2C)OCO4 [Trabectedin] | 0.939 ± 0.021 | 0.903 ± 0.022 | 0.886 ± 0.036 | 0.819 ± 0.039 | 0.667 ± 0.049 | 0.471 ± 0.025 | 0.0389 ± 0.024 | 0.0573 ± 0.00061 | 0.0496 ± 0.003 | 0.997 ± 0.015 | 0.963 ± 0.015 | – | – | – | – | – | – | – | – | – | – | –
CN1CCN(c2ccc3nc(-c4c(N)c5c(F)cccc5[nH]c4=O)[nH]c3c2)CC1 [Dovitinib] | – | – | – | – | – | – | – | – | – | – | – | 0.945 ± 0.032 | 0.974 ± 0.029 | 0.95 ± 0.021 | 0.95 ± 0.017 | 0.9483 ± 0.0052 | 0.9283 ± 0.009 | 0.921 ± 0.04 | 0.836 ± 0.041 | 0.4858 ± 0.0047 | 0.191 ± 0.012 | 0.0897 ± 0.0022
C[C@@H]1COCCN1c1cc(-c2ccnn2C)c2ccnc(-c3ccn[nH]3)c2n1 | – | – | – | – | – | – | – | – | – | – | – | 0.952 ± 0.028 | 0.934 ± 0.025 | 0.9269 ± 0.0056 | 0.924 ± 0.028 | 0.878 ± 0.013 | 0.752 ± 0.019 | 0.489 ± 0.012 | 0.31 ± 0.022 | 0.175 ± 0.0043 | 0.122 ± 0.0046 | 0.113 ± 0.003
Cn1cc(-c2cc3c(N4CCN(c5ncc([C@@](C)(N)c6ccc(F)cc6)cn5)CC4)ncnn3c2)cn1 [Avapritinib] | – | – | – | – | – | – | – | – | – | – | – | 0.882 ± 0.024 | 0.867 ± 0.036 | 0.8778 ± 0.0081 | 0.884 ± 0.016 | 0.91 ± 0.016 | 0.902 ± 0.038 | 0.898 ± 0.02 | 0.884 ± 0.018 | 0.795 ± 0.014 | 0.624 ± 0.02 | 0.51 ± 0.011
C[C@]1(O)C[C@@H](c2nc(-c3ccc4ccc(-c5ccccc5)nc4c3)c3c(N)nccn32)C1 [Linsitinib] | – | – | – | – | – | – | – | – | – | – | – | 0.983 ± 0.02 | 0.958 ± 0.021 | 0.9582 ± 0.0041 | 0.926 ± 0.015 | 0.962 ± 0.015 | 0.943 ± 0.025 | 0.958 ± 0.035 | 0.898 ± 0.024 | 0.887 ± 0.01 | 0.784 ± 0.0085 | 0.63 ± 0.023
Cc1nc(NC(=O)N2CCC[C@H]2C(N)=O)sc1-c1ccnc(C(C)(C)C(F)(F)F)c1 [Alpelisib] | – | – | – | – | – | – | – | – | – | – | – | 0.884 ± 0.046 | 0.909 ± 0.053 | 0.901 ± 0.01 | 0.88 ± 0.052 | 0.879 ± 0.033 | 0.843 ± 0.034 | 0.774 ± 0.014 | 0.64 ± 0.016 | 0.526 ± 0.019 | 0.43 ± 0.015 | 0.323 ± 0.0056
COc1cccc2c1C(=O)c1c(O)c3c(c(O)c1C2=O)C[C@@](O)(C(=O)CO)C[C@@H]3O[C@H]1C[C@H](N)[C@H](O)[C@H](C)O1 [Doxorubicin Hydrochloride] | – | – | – | – | – | – | – | – | – | – | – | 0.975 ± 0.028 | 0.937 ± 0.042 | 0.934 ± 0.024 | 0.89 ± 0.024 | 0.66 ± 0.036 | 0.39 ± 0.0073 | 0.313 ± 0.01 | 0.201 ± 0.0045 | 0.0143 ± 0.0029 | 0.0402 ± 0.002 | 0.03487 ± 0.00029
CNC(=O)c1ccc(-c2cnc3ncc(Cc4ccc5ncccc5c4)n3n2)cc1F [Capmatinib] | – | – | – | – | – | – | – | – | – | – | – | 0.93 ± 0.025 | 0.959 ± 0.037 | 0.958 ± 0.028 | 0.953 ± 0.057 | 0.943 ± 0.012 | 0.945 ± 0.036 | 0.982 ± 0.012 | 0.934 ± 0.012 | 0.937 ± 0.055 | 0.867 ± 0.035 | 0.837 ± 0.025
Cc1ccc(NC(=O)c2ccc(CN3CCN(C)CC3)cc2)cc1Nc1nc(-c2cccnc2)cs1 [Masitinib] | – | – | – | – | – | – | – | – | – | – | – | 0.978 ± 0.013 | 0.969 ± 0.014 | 0.955 ± 0.021 | 0.96 ± 0.028 | 0.952 ± 0.011 | 0.956 ± 0.015 | 0.912 ± 0.025 | 0.905 ± 0.026 | 0.735 ± 0.029 | 0.445 ± 0.017 | 0.11 ± 0.011
C[C@@H](c1ccc2nccn2c1)n1nnc2ncc(-c3cnn(C)c3)nc21 [Volitinib] | – | – | – | – | – | – | – | – | – | – | – | 0.91 ± 0.021 | 0.92 ± 0.053 | 0.97 ± 0.022 | 0.927 ± 0.043 | 0.959 ± 0.019 | 0.957 ± 0.026 | 0.929 ± 0.039 | 0.949 ± 0.029 | 0.926 ± 0.018 | 0.942 ± 0.018 | 0.902 ± 0.035
CC(C)(C)c1cc(NC(=O)Nc2ccc(-c3cn4c(n3)sc3cc(OCCN5CCOCC5)ccc34)cc2)no1 [Quizartinib] | – | – | – | – | – | – | – | – | – | – | – | 0.944 ± 0.012 | 0.974 ± 0.019 | 0.94 ± 0.015 | 0.935 ± 0.046 | 0.937 ± 0.023 | 0.931 ± 0.016 | 0.953 ± 0.025 | 0.933 ± 0.031 | 0.823 ± 0.017 | 0.602 ± 0.041 | 0.577 ± 0.025
CC(C)N1CCN(Cc2cnc(-c3cc(-c4cccc5[nH]ccc45)cc4[nH]ncc34)o2)CC1 [Nemiralisib] | – | – | – | – | – | – | – | – | – | – | – | 0.967 ± 0.032 | 0.961 ± 0.022 | 0.953 ± 0.05 | 0.958 ± 0.05 | 0.977 ± 0.033 | 0.926 ± 0.039 | 0.979 ± 0.047 | 0.964 ± 0.043 | 0.911 ± 0.024 | 0.764 ± 0.028 | 0.486 ± 0.027
C=CC(=O)N1CCC[C@@H](n2nc(-c3ccc(Oc4ccccc4)cc3)c3c(N)ncnc32)C1 [Ibrutinib] | – | – | – | – | – | – | – | – | – | – | – | 1 ± 0.018 | 0.977 ± 0.021 | 0.955 ± 0.041 | 0.947 ± 0.029 | 0.966 ± 0.026 | 0.964 ± 0.026 | 0.931 ± 0.03 | 0.864 ± 0.011 | 0.866 ± 0.045 | 0.88 ± 0.022 | 0.6991 ± 0.0047
CN1CCC(COc2cnc(-c3cccc(Cn4nc(-c5cccc(C#N)c5)ccc4=O)c3)nc2)CC1 [Tepotinib] | – | – | – | – | – | – | – | – | – | – | – | 0.962 ± 0.038 | 0.959 ± 0.0044 | 0.95 ± 0.023 | 0.974 ± 0.033 | 0.955 ± 0.043 | 0.928 ± 0.035 | 0.939 ± 0.028 | 0.9528 ± 0.0065 | 0.94 ± 0.042 | 0.875 ± 0.027 | 0.752 ± 0.024
C[C@@H]1CCN(C(=O)CC#N)C[C@@H]1N(C)c1ncnc2[nH]ccc12 [Tofacitinib] | – | – | – | – | – | – | – | – | – | – | – | 0.985 ± 0.035 | 0.955 ± 0.064 | 0.96 ± 0.043 | 0.963 ± 0.05 | 0.966 ± 0.033 | 0.976 ± 0.025 | 0.974 ± 0.031 | 0.953 ± 0.028 | 0.952 ± 0.056 | 0.927 ± 0.042 | 0.873 ± 0.049
Cc1cc(Nc2ncnc3ccc(NC4=NC(C)(C)CO4)cc23)ccc1Oc1ccn2ncnc2c1 [Tucatinib] | – | – | – | – | – | – | – | – | – | – | – | 0.988 ± 0.052 | 0.9678 ± 0.005 | 0.961 ± 0.03 | 0.95 ± 0.022 | 0.948 ± 0.031 | 0.939 ± 0.035 | 0.916 ± 0.013 | 0.89 ± 0.049 | 0.857 ± 0.0086 | 0.796 ± 0.02 | 0.515 ± 0.042
O=C(Nc1cnn2ccc(N3CCC[C@@H]3c3cc(F)ccc3F)nc12)N1CC[C@H](O)C1 [Larotrectinib] | – | – | – | – | – | – | – | – | – | – | – | 0.929 ± 0.024 | 0.932 ± 0.046 | 0.923 ± 0.054 | 0.896 ± 0.056 | 0.931 ± 0.022 | 0.929 ± 0.039 | 0.894 ± 0.073 | 0.897 ± 0.022 | 0.916 ± 0.027 | 0.893 ± 0.048 | 0.877 ± 0.015
C=CC(=O)N1CCC([C@@H]2CCNc3c(C(N)=O)c(-c4ccc(Oc5ccccc5)cc4)nn32)CC1 [Zanubrutinib] | – | – | – | – | – | – | – | – | – | – | – | 0.9598 ± 0.0038 | 0.965 ± 0.013 | 0.959 ± 0.026 | 0.983 ± 0.033 | 0.918 ± 0.031 | 0.95 ± 0.037 | 0.92 ± 0.041 | 0.965 ± 0.034 | 0.955 ± 0.018 | 0.881 ± 0.041 | 0.742 ± 0.034
CO[C@H]1C[C@@H]2CC[C@@H](C)[C@@](O)(O2)C(=O)C(=O)N2CCCC[C@H]2C(=O)O[C@H]([C@H](C)C[C@@H]2CC[C@@H](OP(C)(C)=O)[C@H](OC)C2)CC(=O)[C@H](C)/C=C(\C)[C@@H](O)[C@@H](OC)C(=O)[C@H](C)C[C@H](C)/C=C/C=C/C=C/1C [Ridaforolimus] | – | – | – | – | – | – | – | – | – | – | – | 0.888 ± 0.04 | 0.827 ± 0.055 | 0.599 ± 0.0079 | 0.489 ± 0.015 | 0.423 ± 0.021 | 0.403 ± 0.024 | 0.4 ± 0.0088 | 0.368 ± 0.027 | 0.376 ± 0.0059 | 0.367 ± 0.023 | 0.374 ± 0.024
